# How the values were obtained:
# Type in all cases: cell-based, human
# [1] = tested on: KB; assay: Hoechst 33342 nuclear staining (Table 3); set-up: key: 0 relating to no activity; 1 relating to weak activity comprising less than 50% of the cells; score 2 relating to strong activity comprising more than 50% of the cells
# Method in brief: (§1)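 Adherent cells (3-5×10^3, pre-spread 24 h) or suspension cells (8-10×10^3) treated with compounds at 10, 3, 1 and 0.3 µM for 24 or 48 h, then Hoechst 33342 stained for 30 min. Apoptotic nuclear morphology scored by fluorescence microscopy: 0 none, 1 weak (<50% cells), 2 strong (>50% cells).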
# [2] = tested on: HeLa; assay: Hoechst 33342 nuclear staining (Table 3); set-up: key: 0 relating to no activity; 1 relating to weak activity comprising less than 50% of the cells; score 2 relating to strong activity comprising more than 50% of the cells
# Method in brief: as §1
# [3] = tested on: Jurkat; assay: BrdU incorporation (proliferation); set-up: key: 0 for no activity; 1 for a moderate inhibition; 2 for strong inhibition of proliferation; settings: 48 h
# Description: (§2) Adherent cells are seeded out at 2 - 4*10^4 cells/well/ml in 24 well tissue culture plates 24 h prior to treatment. Suspension cells are seeded out at 2*10^5 cells/ml/well in 24 well plates. Compounds are added leading to final concentrations of 3 µM and 10 µM, respectively. Subsequently, BrdU (Molecular Probes #B-23151) at 10 µM final concentration is added and the plates are incubated for 48 h. After the incubation cells are processed according to standard procedures. The detection of the incorporated BrdU is done with the anti-bromodeoxyuridine Mab PRB-1, Alexa Fluor 660 conjugate (Molecular Probes #A-21306). The analysis is performed on a FACSCalibur™ by monitoring the fluorescence activity on FL3. The readout reflects DNA synthesis which is a hallmark for proliferation. The scores are defined the following: 0 for no activity, 1 for a moderate inhibition and 2 for strong inhibition of proliferation. Table 7 indicates inhibitory activities of several tested compounds on proliferation.
# [4] = tested on: HeLa; assay: BrdU incorporation (proliferation); set-up: key: 0 for no activity; 1 for a moderate inhibition; 2 for strong inhibition of proliferation; settings: 3uM, 48 h
# Description: as §2
# [5] = tested on: HT 1080; assay: Hoechst 33342 nuclear staining (Table 3); set-up: key: 0 relating to no activity; 1 relating to weak activity comprising less than 50% of the cells; score 2 relating to strong activity comprising more than 50% of the cells
# Method in brief: as §1
# [6] = tested on: Ramos; assay: Hoechst 33342 nuclear staining (Table 3); set-up: key: 0 relating to no activity; 1 relating to weak activity comprising less than 50% of the cells; score 2 relating to strong activity comprising more than 50% of the cells
# Method in brief: as §1
# [7] = tested on: PC-3; assay: Hoechst 33342 nuclear staining (Table 3); set-up: key: 0 relating to no activity; 1 relating to weak activity comprising less than 50% of the cells; score 2 relating to strong activity comprising more than 50% of the cells
# Method in brief: as §1
# [8] = tested on: SKMEL 1; assay: Hoechst 33342 nuclear staining (Table 3); set-up: key: 0 relating to no activity; 1 relating to weak activity comprising less than 50% of the cells; score 2 relating to strong activity comprising more than 50% of the cells
# Method in brief: as §1
# [9] = tested on: H9; assay: Hoechst 33342 nuclear staining (Table 3); set-up: key: 0 relating to no activity; 1 relating to weak activity comprising less than 50% of the cells; score 2 relating to strong activity comprising more than 50% of the cells
# Method in brief: as §1
# [10] = tested on: HBL 100; assay: Hoechst 33342 nuclear staining (Table 3); set-up: key: 0 relating to no activity; 1 relating to weak activity comprising less than 50% of the cells; score 2 relating to strong activity comprising more than 50% of the cells
# Method in brief: as §1
structure (smiles),measurement,setting,value
CC1Cc2ccccc2-c2c(Cl)c3nc4ccccc4nc3n21 (stereo not drawn) [compound 11],Hoechst 33342 nuclear staining,"[1]; 24h, conc 0.3 (µM)",0
same,Hoechst 33342 nuclear staining,"[1]; 24h, conc 1 (µM)",0
same,Hoechst 33342 nuclear staining,"[1]; 24h, conc 3 (µM)",0
same,Hoechst 33342 nuclear staining,"[1]; 24h, conc 10 (µM)",0
same,Hoechst 33342 nuclear staining,"[1]; 48h, conc 0.3 (µM)",0
same,Hoechst 33342 nuclear staining,"[1]; 48h, conc 1 (µM)",0
same,Hoechst 33342 nuclear staining,"[1]; 48h, conc 3 (µM)",1 (1 relating to weak activity comprising less than 50% of the cells)
same,Hoechst 33342 nuclear staining,"[1]; 48h, conc 10 (µM)",2 (score 2 relating to strong activity comprising more than 50% of the cells)
same,Hoechst 33342 nuclear staining,"[2]; 24h, conc 0.3 (µM)",0
same,Hoechst 33342 nuclear staining,"[2]; 24h, conc 1 (µM)",0
same,Hoechst 33342 nuclear staining,"[2]; 24h, conc 3 (µM)",0
same,Hoechst 33342 nuclear staining,"[2]; 24h, conc 10 (µM)",0
same,Hoechst 33342 nuclear staining,"[2]; 48h, conc 0.3 (µM)",0
same,Hoechst 33342 nuclear staining,"[2]; 48h, conc 1 (µM)",0
same,Hoechst 33342 nuclear staining,"[2]; 48h, conc 3 (µM)",0
same,Hoechst 33342 nuclear staining,"[2]; 48h, conc 10 (µM)",2 (score 2 relating to strong activity comprising more than 50% of the cells)
same,BrdU incorporation (inhibition of proliferation),[3]; 3uM,0
same,BrdU incorporation (inhibition of proliferation),[3]; 10uM,2
same,BrdU incorporation (inhibition of proliferation),[4],1
CCC1Cc2cc(OC)c(OC)cc2-c2cc3nc4ccccc4nc3n21 (stereo not drawn) [compound 13],Hoechst 33342 nuclear staining,"[1]; 24h, conc 0.3 (µM)",0
same,Hoechst 33342 nuclear staining,"[1]; 24h, conc 1 (µM)",0
same,Hoechst 33342 nuclear staining,"[1]; 24h, conc 3 (µM)",0
same,Hoechst 33342 nuclear staining,"[1]; 24h, conc 10 (µM)",2 (score 2 relating to strong activity comprising more than 50% of the cells)
same,Hoechst 33342 nuclear staining,"[1]; 48h, conc 0.3 (µM)",0
same,Hoechst 33342 nuclear staining,"[1]; 48h, conc 1 (µM)",0
same,Hoechst 33342 nuclear staining,"[1]; 48h, conc 3 (µM)",2 (score 2 relating to strong activity comprising more than 50% of the cells)
same,Hoechst 33342 nuclear staining,"[1]; 48h, conc 10 (µM)",2 (score 2 relating to strong activity comprising more than 50% of the cells)
same,Hoechst 33342 nuclear staining,"[2]; 24h, conc 0.3 (µM)",0
same,Hoechst 33342 nuclear staining,"[2]; 24h, conc 1 (µM)",0
same,Hoechst 33342 nuclear staining,"[2]; 24h, conc 3 (µM)",0
same,Hoechst 33342 nuclear staining,"[2]; 24h, conc 10 (µM)",0
same,Hoechst 33342 nuclear staining,"[2]; 48h, conc 0.3 (µM)",0
same,Hoechst 33342 nuclear staining,"[2]; 48h, conc 1 (µM)",0
same,Hoechst 33342 nuclear staining,"[2]; 48h, conc 3 (µM)",2 (score 2 relating to strong activity comprising more than 50% of the cells)
same,Hoechst 33342 nuclear staining,"[2]; 48h, conc 10 (µM)",2 (score 2 relating to strong activity comprising more than 50% of the cells)
same,BrdU incorporation (inhibition of proliferation),[3]; 3uM,2
same,BrdU incorporation (inhibition of proliferation),[3]; 10uM,2
same,BrdU incorporation (inhibition of proliferation),[4],1
"CC1(C)Cc2ccccc2-c2c(Br)c3nc4ccccc4nc3n21 [No. 2, 13-Bromo-6,6-dimethyl-5,6-dihydro-6a,7,12-triaza-dibenzo[a,h]fluorene]","Hoechst 33342 nuclear staining (fraction of apoptotic nuclei), score","[5]; HT 1080, 24h, 0.3 µM",0
same,"Hoechst 33342 nuclear staining (fraction of apoptotic nuclei), score","[5]; HT 1080, 24h, 1 µM",0
same,"Hoechst 33342 nuclear staining (fraction of apoptotic nuclei), score","[5]; HT 1080, 24h, 3 µM",0
same,"Hoechst 33342 nuclear staining (fraction of apoptotic nuclei), score","[5]; HT 1080, 24h, 10 µM",0
same,"Hoechst 33342 nuclear staining (fraction of apoptotic nuclei), score","[5]; HT 1080, 48h, 0.3 µM",0
same,"Hoechst 33342 nuclear staining (fraction of apoptotic nuclei), score","[5]; HT 1080, 48h, 1 µM",0
same,"Hoechst 33342 nuclear staining (fraction of apoptotic nuclei), score","[5]; HT 1080, 48h, 3 µM",0
same,"Hoechst 33342 nuclear staining (fraction of apoptotic nuclei), score","[5]; HT 1080, 48h, 10 µM",1 (1 relating to weak activity comprising less than 50% of the cells)
same,Hoechst 33342 nuclear staining,"[1]; 24h, conc 0.3 (µM)",0
same,Hoechst 33342 nuclear staining,"[1]; 24h, conc 1 (µM)",0
same,Hoechst 33342 nuclear staining,"[1]; 24h, conc 3 (µM)",0
same,Hoechst 33342 nuclear staining,"[1]; 24h, conc 10 (µM)",0
same,Hoechst 33342 nuclear staining,"[1]; 48h, conc 0.3 (µM)",0
same,Hoechst 33342 nuclear staining,"[1]; 48h, conc 1 (µM)",0
same,Hoechst 33342 nuclear staining,"[1]; 48h, conc 3 (µM)",0
same,Hoechst 33342 nuclear staining,"[1]; 48h, conc 10 (µM)",0
same,Hoechst 33342 nuclear staining,"[6]; 24h, conc 0.3 (µM)",0
same,Hoechst 33342 nuclear staining,"[6]; 24h, conc 1 (µM)",0
same,Hoechst 33342 nuclear staining,"[6]; 24h, conc 3 (µM)",0
same,Hoechst 33342 nuclear staining,"[6]; 24h, conc 10 (µM)",2 (score 2 relating to strong activity comprising more than 50% of the cells)
same,Hoechst 33342 nuclear staining,"[6]; 48h, conc 0.3 (µM)",2 (score 2 relating to strong activity comprising more than 50% of the cells)
same,Hoechst 33342 nuclear staining,"[6]; 48h, conc 1 (µM)",2 (score 2 relating to strong activity comprising more than 50% of the cells)
same,Hoechst 33342 nuclear staining,"[6]; 48h, conc 3 (µM)",2 (score 2 relating to strong activity comprising more than 50% of the cells)
same,Hoechst 33342 nuclear staining,"[6]; 48h, conc 10 (µM)",2 (score 2 relating to strong activity comprising more than 50% of the cells)
same,Hoechst 33342 nuclear staining,"[2]; 24h, conc 0.3 (µM)",0
same,Hoechst 33342 nuclear staining,"[2]; 24h, conc 1 (µM)",0
same,Hoechst 33342 nuclear staining,"[2]; 24h, conc 3 (µM)",0
same,Hoechst 33342 nuclear staining,"[2]; 24h, conc 10 (µM)",0
same,Hoechst 33342 nuclear staining,"[2]; 48h, conc 0.3 (µM)",0
same,Hoechst 33342 nuclear staining,"[2]; 48h, conc 1 (µM)",1 (1 relating to weak activity comprising less than 50% of the cells)
same,Hoechst 33342 nuclear staining,"[2]; 48h, conc 3 (µM)",2 (score 2 relating to strong activity comprising more than 50% of the cells)
same,Hoechst 33342 nuclear staining,"[2]; 48h, conc 10 (µM)",2 (score 2 relating to strong activity comprising more than 50% of the cells)
same,"Hoechst 33342 nuclear staining (fraction of apoptotic nuclei), score","[7]; PC-3, 24h, 0.3 µM",0
same,"Hoechst 33342 nuclear staining (fraction of apoptotic nuclei), score","[7]; PC-3, 24h, 1 µM",0
same,"Hoechst 33342 nuclear staining (fraction of apoptotic nuclei), score","[7]; PC-3, 24h, 3 µM",0
same,"Hoechst 33342 nuclear staining (fraction of apoptotic nuclei), score","[7]; PC-3, 24h, 10 µM",0
same,"Hoechst 33342 nuclear staining (fraction of apoptotic nuclei), score","[7]; PC-3, 48h, 0.3 µM",0
same,"Hoechst 33342 nuclear staining (fraction of apoptotic nuclei), score","[7]; PC-3, 48h, 1 µM",0
same,"Hoechst 33342 nuclear staining (fraction of apoptotic nuclei), score","[7]; PC-3, 48h, 3 µM",0
same,"Hoechst 33342 nuclear staining (fraction of apoptotic nuclei), score","[7]; PC-3, 48h, 10 µM",2 (score 2 relating to strong activity comprising more than 50% of the cells)
same,"Hoechst 33342 nuclear staining (fraction of apoptotic nuclei), score","[8]; SKMEL 1, 24h, 0.3 µM",0
same,"Hoechst 33342 nuclear staining (fraction of apoptotic nuclei), score","[8]; SKMEL 1, 24h, 1 µM",0
same,"Hoechst 33342 nuclear staining (fraction of apoptotic nuclei), score","[8]; SKMEL 1, 24h, 3 µM",0
same,"Hoechst 33342 nuclear staining (fraction of apoptotic nuclei), score","[8]; SKMEL 1, 24h, 10 µM",0
same,"Hoechst 33342 nuclear staining (fraction of apoptotic nuclei), score","[8]; SKMEL 1, 48h, 0.3 µM",0
same,"Hoechst 33342 nuclear staining (fraction of apoptotic nuclei), score","[8]; SKMEL 1, 48h, 1 µM",0
same,"Hoechst 33342 nuclear staining (fraction of apoptotic nuclei), score","[8]; SKMEL 1, 48h, 3 µM",0
same,"Hoechst 33342 nuclear staining (fraction of apoptotic nuclei), score","[8]; SKMEL 1, 48h, 10 µM",0
same,"Hoechst 33342 nuclear staining (fraction of apoptotic nuclei), score","[9]; H9, 24h, 0.3 µM",0
same,"Hoechst 33342 nuclear staining (fraction of apoptotic nuclei), score","[9]; H9, 24h, 1 µM",0
same,"Hoechst 33342 nuclear staining (fraction of apoptotic nuclei), score","[9]; H9, 24h, 3 µM",0
same,"Hoechst 33342 nuclear staining (fraction of apoptotic nuclei), score","[9]; H9, 24h, 10 µM",0
same,"Hoechst 33342 nuclear staining (fraction of apoptotic nuclei), score","[9]; H9, 48h, 0.3 µM",0
same,"Hoechst 33342 nuclear staining (fraction of apoptotic nuclei), score","[9]; H9, 48h, 1 µM",0
same,"Hoechst 33342 nuclear staining (fraction of apoptotic nuclei), score","[9]; H9, 48h, 3 µM",0
same,"Hoechst 33342 nuclear staining (fraction of apoptotic nuclei), score","[9]; H9, 48h, 10 µM",0
same,"Hoechst 33342 nuclear staining (fraction of apoptotic nuclei), score","[10]; HBL 100, 24h, 0.3 µM",0
same,"Hoechst 33342 nuclear staining (fraction of apoptotic nuclei), score","[10]; HBL 100, 24h, 1 µM",0
same,"Hoechst 33342 nuclear staining (fraction of apoptotic nuclei), score","[10]; HBL 100, 24h, 3 µM",0
same,"Hoechst 33342 nuclear staining (fraction of apoptotic nuclei), score","[10]; HBL 100, 24h, 10 µM",0
same,"Hoechst 33342 nuclear staining (fraction of apoptotic nuclei), score","[10]; HBL 100, 48h, 0.3 µM",0
same,"Hoechst 33342 nuclear staining (fraction of apoptotic nuclei), score","[10]; HBL 100, 48h, 1 µM",0
same,"Hoechst 33342 nuclear staining (fraction of apoptotic nuclei), score","[10]; HBL 100, 48h, 3 µM",0
same,"Hoechst 33342 nuclear staining (fraction of apoptotic nuclei), score","[10]; HBL 100, 48h, 10 µM",2 (score 2 relating to strong activity comprising more than 50% of the cells)

# Reference: patent EP1433789A1, “Pyrrolopyrazines and their use as selective apoptosis inducers” (Aponetics AG, priority 2002, dated 2004)
